Laboratory results as given in patent US9187728B2, “Method for producing hematopoietic stem cells” (Nissan Chemical Industries, Ltd., priority 2010, dated 2015).

Experiments:
CD34+CD38- cells = experiment: Expansion of CD34+CD38- cells using human cord blood-derived CD34+ cells (liquid culture, flow cytometry); format: cell-based; conditions: for expansion activity on CD34+CD38- cells: 7 days; for expansion activity on hematopoietic stem cells: general statement, compared with the other specific compounds
Protocol: (§1) Human cord blood-derived CD34^+ cells were purchased from Lonza and plated on a 24-well plate (Corning) (10000 cells/1 mL/well). As the culture medium, StemSpan SFEM (StemCell Technologies) containing 100 ng/mL SCF (Wako Pure Chemical Industries) and 20 ng/mL TPO (PeproTech) in terms of final concentration was used, and garcinol (COSMO BIO) dissolved in dimethyl sulfoxide was added to the medium in an amount of 0.1% (v/v) to a final concentration of 5 or 10 μM. Similarly, isogarcinol (Reference Synthetic Example 1) dissolved in dimethyl sulfoxide was added to the medium in an amount of 0.1% (v/v) to a final concentration of 2 or 5 μM. As a negative control, the medium containing 0.1% (v/v) dimethyl sulfoxide was used.
After the cells were incubated in liquid culture at 37° C. for 7 days in a CO2 incubator (5% CO2), the number of viable cells was counted by trypan blue assay. The number of CD34^+CD38^− cells was calculated as follows. After the incubation, the cells in the liquid culture was stained with a CD34 antibody (APC, Becton, Dickinson and Company) and a CD38 antibody (P E, Becton, Dickinson and Company), then washed with PBS(−) containing 2% (v/v) FBS and stained with propidium iodide (Sigma-Aldrich Japan) added to a final concentration of 5 μg/mL. The stained cells were analyzed with a BD FACSCANTO™ II flow cytometer (Becton, Dickinson and Company) to determined the proportions of CD34^+ cells and CD34^+CD38^− cells, which was multiplied by the number of viable cells to calculate the numbers of CD34^+ cells and CD34^+CD38^− cells.
Human cord blood-derived CD34^+ cells purchased from the same supplier as in Assay Example 1 were plated on a 24-well plate (Corning) (10000 cells/1 mL/well). As the culture medium, StemSpan SFEM (StemCell Technologies) containing 100 ng/mL SCF (Wako Pure Chemical Industries) and 20 ng/mL TPO (PeproTech) in terms of final concentration was used, and O-monomethylisogarcinol (Reference Synthetic Example 2) dissolved in dimethyl sulfoxide was added to the medium to a final concentration of 1 or 2 μM.
(§2) After the cells were incubated in liquid culture at 37° C. for 7 days in a CO2 incubator (5% CO2), the number of viable cells was counted by trypan blue assay. The number of CD34^+CD38^− cells was calculated in the same manner as in Assay Example 1.
Human cord blood-derived CD34^+ cells purchased from the same supplier as in Assay Example 1 were plated on a 24-well plate (Corning) (10000 cells/1 mL/well). […]

CD34+ cells = experiment: Expansion of CD34+ cells using human cord blood-derived CD34+ cells (liquid culture, flow cytometry); format: cell-based; conditions: Assay Example 2; 1 or 2 μM; 100 ng/mL SCF + 20 ng/mL TPO; 7 days
Protocol: as §1, with “As a negative control, the medium containing 0.1% (v/v) dimethyl sulfoxide was used.” left out
After the cells were incubated in liquid culture at 37° C. for 7 days in a CO2 incubator (5% CO2), the number of viable cells was counted by trypan blue assay. The number of CD34^+CD38^− cells was calculated as follows. […] The stained cells were analyzed with a BD FACSCANTO™ II flow cytometer (Becton, Dickinson and Company) to determined the proportions of CD34^+ cells and CD34^+CD38^− cells, which was multiplied by the number of viable cells to calculate the numbers of CD34^+ cells and CD34^+CD38^− cells. […]
as §2

[1] = test system: SCID-repopulating cells (SRC); experiment: Transplantation of cell culture into immunodeficient (NOD/SCID) mice (SRC assay); format: in vivo, human; conditions: CD34+ cells cultured with 10 μM, transplanted into irradiated NOD/SCID mice, 8 weeks; vs cells cultured without compound (FIG. 5)
Protocol: Human cord blood-derived CD34^+ cells cultured in the presence of 10 μM garcinol (COSMO BIO) in terms of final concentration or in the absence of garcinol (i.e., in a culture medium containing 0.1% (v/v) dimethyl sulfoxide) in the same manner as in Assay Example 1 were transplanted into at least five 7- to 8-week-old NOD/SCID mice by tail vein injection at 4 to 5×10^4 cells/mouse in terms of the initial number of CD34^+ cells after a sublethal dose of irradiation (2.5 Gy). Eight weeks after the transplantation, the mice were killed, and the bone marrow cells were collected from both thighbones. Subsequently, the bone marrow cells were stained with a human CD45 antibody (APC, Becton, Dickinson and Company), then washed with PBS(−) containing 2%(v/v) FBS and stained with propidium iodide (Sigma-Aldrich Japan) added to a final concentration of 5 μg/mL. The stained cells were analyzed by flow cytometry to determined the proportion of human CD45^+ cells in the bone marrow cells.

HPP-CFC colonies = experiment: Expansion of HPP-CFU using human cord blood-derived CD34+ cells (blood cell colony forming assay); format: cell-based; conditions: then 500 cells/dish MethoCult GF H4435, 12 days, None = 19
Protocol: The effects of garcinol and isogarcinol as compounds of the present invention on hematopoietic progenitor cells were measured by blood cell colony forming assay. The liquid cell cultures obtained in Assay Example 1 were poured into 3.5-cm Petri dishes with MethoCult GF H4435 culture medium (StemCell Technologies) at 500 cells/dish and incubated in a CO2 incubator (5% CO2, 37° C.) for 12 days. The number of HPP-CFC colonies in each plate was counted under a microscope routinely. The assay was carried out at least in duplicate, and the numbers of HPP-CFC colonies were averaged.

| SMILES | expansion activity on CD34+CD38- cells (CD34+CD38- cells; Assay Example 2, 1 or 2 μM, 100 ng/mL SCF + 20 ng/mL TPO, vs absence of compound (FIG. 3)) | expansion activity on CD34+ cells (CD34+ cells) | SRC expanding effect (proportion of human CD45+ cells in bone marrow) [1] | expansion activity on CD34+CD38- cells (CD34+CD38- cells; Assay Example 3, 10 μM, in the presence of SCF, SCF and TPO, or SCF, TPO and FL, compared with absence of the compound (FIG. 4)) | expansion activity on hematopoietic stem cells (CD34+CD38- cells) | Number of HPP-CFC colonies (HPP-CFC colonies; 10 μM in 7-day liquid culture (SCF+TPO)) | Number of HPP-CFC colonies (HPP-CFC colonies; 5 μM in 7-day liquid culture (SCF+TPO)) |
| --- | --- | --- | --- | --- | --- | --- | --- |
| COc1ccc(C(=O)C2=C3OC(C)(C)[C@@H](CC=C(C)C)C[C@@]34C[C@@H](CC=C(C)C)C(C)(C)[C@@](CC=C(C)C)(C2=O)C4=O)cc1O [O-monomethylisogarcinol, O-Monomethylisogarcinol] | excellent expansion activity | excellent expansion activity | – | – | – | – | – |
| C=C(C)[C@@H](CC=C(C)C)C[C@@]12C[C@@H](CC=C(C)C)C(C)(C)[C@@](CC=C(C)C)(C(=O)C(C(=O)c3ccc(O)c(O)c3)=C1O)C2=O [garcinol, Garcinol] | – | – | excellent SRC expanding effect | higher expansion activity | especially strong expansion activity | 35 | – |
| CC(C)=CC[C@H]1C[C@@]23C[C@@H](CC=C(C)C)C(C)(C)[C@@](CC=C(C)C)(C(=O)C(C(=O)c4ccc(O)c(O)c4)=C2OC1(C)C)C3=O [isogarcinol, Isogarcinol] | – | – | – | – | especially strong expansion activity | – | 42 |
